# Laboratory results published in paper PMC11814485, “Screening of homing and tissue-penetrating peptides by microdialysis and in vivo phage display” (Life Science Alliance, 2025).
# System: retina (OIR model)
# Assay: Homing of FAM-peptides to retina and vitreous in oxygen-induced retinopathy (OIR) and to normal retina
# Assay type: in vivo, mouse (C57BL/6Rj)
# Conditions: OIR mice P17, 5 mg/kg, 120 min circulation, anti-FAM
# Description: Figure 3. Microdialysis-captured peptides home to skin wounds and penetrate blood–retina barrier in retinopathy. Systemically administered homing peptides CDD, CPK, and CYH accumulate in skin wounds and penetrate blood–retina barrier in retinopathy. Full-thickness wounds, 6 mm in diameter, in the back skin of 8-wk-old male mice were used. After 7 d, each peptide or PBS was injected into the tail vein. For retinopathy experiments, oxygen-induced retinopathy (OIR) was induced by placing mouse pups at day P7 in a hyperoxia chamber for 5 d. On P17, when the angiogenesis peaks in this OIR model, the peptides were injected into the tail vein. The peptides circulated for 150 min (wounds) and 120 min (OIR) before the vasculature was thoroughly perfused. The skin wounds and eyeballs were fixed, and histological samples stained with anti-FAM and hematoxylin. Peptide homing was quantified with the automated image analysis system. (A) Microdialysis-identified peptides home to skin wounds. […] (D) All three microdialysis-identified peptides also accumulate substantially in the vitreous in the OIR model. *P < 0.05, **P < 0.01, ***< 0.001. Each datapoint represents an individual wound, retina, or vitreous. N = 3 for skin wound, and N = 6 and N = 8 for normal and OIR retinas.
# We wanted to explore whether the new wound-penetrating peptides externalize and penetrate tissues that have an additional barrier around the blood vessels. The retinal blood vessels have an additional element, blood–retina barrier (BRB) that hinders the access of systemically administered drugs to retina ([Lahdenranta et al, 2007]; [Sweeney et al, 2019]; [Vähätupa, et al, 2020b]). Thus, we explored the homing of the new peptides to the normal retina and to the retinal angiogenesis in the oxygen-induced retinopathy (OIR) model ([Vähätupa, et al, 2020b]). […] Next, we quantified the area of positive staining in the retina. There was ninefold more of CYH (P < 0.01) and 120-fold and 88-fold more of CDD and CPK than of a control peptide in OIR retinas (P < 0.0001 for the CDD and CPK peptides) (Fig 3C).
# Figure 4. Microdialysis-captured peptides home and penetrate to retina in retinopathy. The CDD, CPK, and CYH peptides accumulate in the retina and vitreous in oxygen-induced retinopathy (OIR). The OIR model was carried out as described previously ([Vähätupa et al, 2020b]). At P17, the peptides were injected into the tail vein and circulated for 120 min before the vasculature was thoroughly perfused. The eyeballs were fixed and histological sections stained with anti-FAM antibody and hematoxylin. (A) None of the tested peptides homed to the normal retina after the systemic administration at P17. (B) Three microdialysis-identified homing peptides homed and penetrated into the retina in OIR at the peak of angiogenesis at P17. The peptides also accumulate in the vitreous in the OIR model. (A, B, C) High-magnification images of peptide accumulation in OIR retina. The scale bar is 100 μm for (A, B) and 20 μm for (C). Images are representative of N = 6 and N = 8 for normal and OIR retinas.
# WT C57BL/6Rj mice were used for the OIR experiments ([Vähätupa, et al, 2020a]). The OIR model was performed as described in detail previously ([Vähätupa, et al, 2020a]; [De Rossi et al, 2021]). Briefly, to induce retinopathy in the retina, the pups and their nursing mothers were exposed to 75% oxygen in a custom-made chamber (ProOx P110 oxygen controller; BioSpherix Ltd.) at postnatal day 7 (P7) for 5 d until P12 when they were returned to normal room air. The homing experiments were performed at P17 (late hypoxic phase and the peak of neovascularization) ([Vähätupa et al, 2021]). Control animals were housed under normal room air conditions, and retinas were harvested on the corresponding day (P17). All retina experiments were conducted under the ARVO Statement for the Use of Animals in Ophthalmic and Vision Research guidelines. […]
row,Sequence,peptide accumulation in the vitreous of the OIR retina relative to the control peptide
1,CDDYQQISC [FAM-labeled synthetic peptide …],67.2 ×
2,CYHDTYPNC [FAM-labeled synthetic peptide …],16.9 ×
3,CPKKHHLDC [FAM-labeled synthetic peptide …],80.3 ×

# Same assay, conditions: OIR mice P17, 5 mg/kg, 120 min circulation, anti-FAM, N = 8
row,Sequence,area of positive staining in OIR retina relative to a control peptide
1,CDDYQQISC [FAM-labeled synthetic peptide …],120 fold
2,CYHDTYPNC [FAM-labeled synthetic peptide …],ninefold
3,CPKKHHLDC [FAM-labeled synthetic peptide …],88 fold

# Same assay, conditions: OIR mice P17, 120 min, anti-FAM staining
row,Sequence,homing signal in OIR retinas around retinal and preretinal blood vessels
1,CDDYQQISC [FAM-labeled synthetic peptide …],strong homing signal
2,CYHDTYPNC [FAM-labeled synthetic peptide …],strong homing signal
3,CPKKHHLDC [FAM-labeled synthetic peptide …],strong homing signal

# System: CHO-K cells
# Assay: Peptide internalization in vitro, confocal imaging, CHO-K cells
# Assay type: cell-based, Chinese hamster
# Conditions: FAM-labeled peptide 20 μM, 3 h, 37°C, confocal fluorescence imaging, representative of three experiments
# Description: Figure 1. Microdialysis-captured peptides penetrate the cell membrane. […] CHO-K cells were grown on chamber slides. […] The scale bar is 20 μm. Images are representative of three individual experiments.
# Plain growth medium was used as a negative control.
row,Sequence,cellular uptake in CHO-K cells
1,CDDYQQISC [FAM-labeled synthetic peptide …],accumulate in the CHO-K cells
2,CYHDTYPNC [FAM-labeled synthetic peptide …],accumulate in the CHO-K cells
3,CPKKHHLDC [FAM-labeled synthetic peptide …],accumulate in the CHO-K cells
